# Patent publication US9512114B2, “Substituted aminopyrimidine compounds and methods of use” (Calitor Sciences, LLC, priority 2013, dated 2016)
# Assays:
# [1] = Compound stability in human liver microsomes; assay type: in vitro ADME; conditions: pH 7.4; for CLint scaled at 5 μM: liver microsomes, in vivo CLint extrapolated from human liver microsome incubation; for half-life at 5 μM: human liver microsomes 0.5 mg protein/mL, compound 5 μM, NADPH 1.0 mM, 37° C., read-out: Human T1/2
# Outline: (§1)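 Human or rat liver microsomes (0.5 mg protein/mL) incubated with compound (5 μM) and NADPH (1.0 mM) in 100 mM potassium phosphate, pH 7.4, 0.05% DMSO, 37° C, sampled 0–60 min and quenched with cold acetonitrile. Remaining compound quantified by LC/MS/MS as % of time zero; CLint extrapolated.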
# PI3K (p110δ/p85α) (h) = PI3K (p110δ/p85α) (h) (Homo sapiens (Human), UniProt O00329); assay: PI3K (p110δ/p85α) (h) non-radioactive HTRF kinase assay; assay type: biochemical; conditions: performed at Millipore UK Ltd
# PI3K (p110δ/p85α) (h), sequence (O00329 whole entry): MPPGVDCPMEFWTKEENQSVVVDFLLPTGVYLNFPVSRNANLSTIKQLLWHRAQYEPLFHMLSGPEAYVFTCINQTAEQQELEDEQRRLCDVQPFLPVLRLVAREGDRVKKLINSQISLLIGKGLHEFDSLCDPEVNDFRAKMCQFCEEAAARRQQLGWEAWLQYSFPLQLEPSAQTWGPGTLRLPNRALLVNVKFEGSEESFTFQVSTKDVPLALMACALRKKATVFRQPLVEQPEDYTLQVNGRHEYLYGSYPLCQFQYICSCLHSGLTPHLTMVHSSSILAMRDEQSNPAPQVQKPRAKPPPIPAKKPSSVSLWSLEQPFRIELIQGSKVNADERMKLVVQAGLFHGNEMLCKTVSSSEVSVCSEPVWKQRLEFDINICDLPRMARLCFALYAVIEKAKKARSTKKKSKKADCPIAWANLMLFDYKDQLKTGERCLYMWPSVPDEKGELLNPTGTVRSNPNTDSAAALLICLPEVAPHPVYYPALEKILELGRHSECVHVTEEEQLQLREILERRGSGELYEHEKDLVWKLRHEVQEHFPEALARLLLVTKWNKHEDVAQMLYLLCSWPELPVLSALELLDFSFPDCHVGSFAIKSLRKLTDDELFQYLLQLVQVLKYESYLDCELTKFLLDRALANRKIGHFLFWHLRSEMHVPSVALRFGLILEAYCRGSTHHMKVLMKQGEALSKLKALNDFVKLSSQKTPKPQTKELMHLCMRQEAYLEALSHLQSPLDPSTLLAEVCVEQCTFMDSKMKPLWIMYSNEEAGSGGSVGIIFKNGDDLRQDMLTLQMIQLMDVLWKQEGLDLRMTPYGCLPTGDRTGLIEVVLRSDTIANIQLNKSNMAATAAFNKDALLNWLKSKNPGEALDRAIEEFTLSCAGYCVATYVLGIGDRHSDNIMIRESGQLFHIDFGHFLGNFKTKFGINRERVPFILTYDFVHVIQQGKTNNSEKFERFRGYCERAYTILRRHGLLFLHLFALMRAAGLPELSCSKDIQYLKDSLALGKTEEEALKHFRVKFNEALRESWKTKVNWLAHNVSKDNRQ
# PI3K (p110δ/p85α) (h), sequence (P27986 whole entry partner): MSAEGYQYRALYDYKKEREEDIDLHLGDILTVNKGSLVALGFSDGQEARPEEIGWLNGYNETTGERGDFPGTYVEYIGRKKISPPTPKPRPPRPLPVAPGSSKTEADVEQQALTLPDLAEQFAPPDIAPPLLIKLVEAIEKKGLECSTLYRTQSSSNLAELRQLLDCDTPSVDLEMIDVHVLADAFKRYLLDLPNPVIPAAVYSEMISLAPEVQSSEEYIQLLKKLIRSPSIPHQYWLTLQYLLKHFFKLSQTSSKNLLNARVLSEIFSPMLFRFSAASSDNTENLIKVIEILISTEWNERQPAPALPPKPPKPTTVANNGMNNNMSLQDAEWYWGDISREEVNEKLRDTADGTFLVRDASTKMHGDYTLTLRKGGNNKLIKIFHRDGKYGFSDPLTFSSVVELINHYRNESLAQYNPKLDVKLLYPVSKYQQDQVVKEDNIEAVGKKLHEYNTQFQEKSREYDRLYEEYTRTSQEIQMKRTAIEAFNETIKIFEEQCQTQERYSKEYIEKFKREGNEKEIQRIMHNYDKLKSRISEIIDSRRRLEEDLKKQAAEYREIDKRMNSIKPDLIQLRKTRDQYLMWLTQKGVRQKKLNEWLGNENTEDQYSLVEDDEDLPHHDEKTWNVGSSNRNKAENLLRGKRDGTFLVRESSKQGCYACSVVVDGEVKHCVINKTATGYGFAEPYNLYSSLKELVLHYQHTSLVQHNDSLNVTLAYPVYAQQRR
# Description: (§2) The above assay procedure can be used to determine the IC50 for inhibition and/or the inhibition constant, Ki.
# PI3K (p110δ/p85α) (h) [Non-Radioactive Assay]
# (§3) PI3K (p110δ/p85α) (h) is incubated in assay buffer containing 10 μM phosphatidylinositol-4, 5-bisphosphate and MgATP (concentration as required). The reaction is initiated by the addition of the MgATP mix. After incubation for 30 minutes at room temperature, the reaction is stopped by the addition of stop solution containing EDTA and biotinylated phosphatidylinositol-3,4,5-trisphosphate. Finally, detection buffer is added, which contains europium-labelled anti-GST monoclonal antibody, GST-tagged GRP1 PH domain and streptavidin-allophycocyanin. The plate is then read in timeresolved fluorescence mode and the homogenous time-resolved fluorescence (HTRF) signal is determined according to the formula HTRF=10000×(Em665 nm/Em620 nm).
# (§4) The kinase assays described herein were performed at Millipore UK Ltd, Dundee Technology Park, Dundee DD2 1SW, UK.
# [2] = Compound stability in rat liver microsomes; assay type: in vitro ADME; conditions: pH 7.4; for CLint scaled at 5 μM: liver microsomes, in vivo CLint extrapolated from rat liver microsome incubation; for half-life at 5 μM: rat liver microsomes 0.5 mg protein/mL, compound 5 μM, NADPH 1.0 mM, 37° C., read-out: Rat T1/2
# Outline: as §1
# PI3K (p110α/p85α) (h) = PI3K (p110α/p85α) (h) (Homo sapiens (Human), UniProt P42336); assay: PI3K (p110α/p85α) (h) non-radioactive HTRF kinase assay; assay type: biochemical; conditions: performed at Millipore UK Ltd
# PI3K (p110α/p85α) (h), sequence (P42336 whole entry): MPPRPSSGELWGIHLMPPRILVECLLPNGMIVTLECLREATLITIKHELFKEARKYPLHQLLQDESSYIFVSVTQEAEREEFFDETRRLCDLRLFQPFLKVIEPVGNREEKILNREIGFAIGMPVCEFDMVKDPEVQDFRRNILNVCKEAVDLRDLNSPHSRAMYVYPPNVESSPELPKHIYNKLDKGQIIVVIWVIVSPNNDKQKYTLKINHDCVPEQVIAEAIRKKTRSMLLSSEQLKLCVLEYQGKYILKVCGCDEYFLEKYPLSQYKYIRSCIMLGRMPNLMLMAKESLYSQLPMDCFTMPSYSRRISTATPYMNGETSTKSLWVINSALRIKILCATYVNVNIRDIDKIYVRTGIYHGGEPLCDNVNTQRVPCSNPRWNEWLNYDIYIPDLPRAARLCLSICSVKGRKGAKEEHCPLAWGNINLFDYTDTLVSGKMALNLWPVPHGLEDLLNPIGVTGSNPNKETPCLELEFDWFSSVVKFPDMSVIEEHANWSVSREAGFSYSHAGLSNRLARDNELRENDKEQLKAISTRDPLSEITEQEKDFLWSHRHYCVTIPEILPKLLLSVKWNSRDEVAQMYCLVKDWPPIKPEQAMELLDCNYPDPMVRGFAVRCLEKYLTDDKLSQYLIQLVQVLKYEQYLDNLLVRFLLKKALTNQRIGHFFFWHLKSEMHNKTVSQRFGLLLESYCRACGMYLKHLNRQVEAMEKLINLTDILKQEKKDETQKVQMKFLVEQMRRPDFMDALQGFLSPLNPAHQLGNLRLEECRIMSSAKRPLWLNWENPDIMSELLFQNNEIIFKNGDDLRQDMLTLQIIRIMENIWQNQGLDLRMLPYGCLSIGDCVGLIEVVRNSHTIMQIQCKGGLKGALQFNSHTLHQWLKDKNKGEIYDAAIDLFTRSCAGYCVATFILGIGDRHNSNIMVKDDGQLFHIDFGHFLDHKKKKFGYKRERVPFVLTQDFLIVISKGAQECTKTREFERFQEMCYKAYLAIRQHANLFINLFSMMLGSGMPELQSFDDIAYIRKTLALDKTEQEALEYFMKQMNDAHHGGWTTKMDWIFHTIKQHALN
# PI3K (p110α/p85α) (h), sequence (P27986 whole entry partner): as the sequence (P27986 whole entry partner) above
# Description: as §2
# PI3K (p110α/p85α) (h) [Non-Radioactive Assay]
# as §3, with “(p110α/p85α)” for “(p110δ/p85α)”, “phosphatidylinositol 4,5-bisphosphate” for “phosphatidylinositol-4, 5-bisphosphate”, “ATP solution.” for “MgATP mix.”, “streptavidin allophycocyanin.” for “streptavidin-allophycocyanin.”
# as §4
# PI3K (p110β/p85α) (h) = PI3K (p110β/p85α) (h) (Homo sapiens (Human), UniProt P42338); assay: PI3K (p110β/p85α) (h) non-radioactive HTRF kinase assay; assay type: biochemical; conditions: performed at Millipore UK Ltd
# PI3K (p110β/p85α) (h), sequence (P42338 whole entry): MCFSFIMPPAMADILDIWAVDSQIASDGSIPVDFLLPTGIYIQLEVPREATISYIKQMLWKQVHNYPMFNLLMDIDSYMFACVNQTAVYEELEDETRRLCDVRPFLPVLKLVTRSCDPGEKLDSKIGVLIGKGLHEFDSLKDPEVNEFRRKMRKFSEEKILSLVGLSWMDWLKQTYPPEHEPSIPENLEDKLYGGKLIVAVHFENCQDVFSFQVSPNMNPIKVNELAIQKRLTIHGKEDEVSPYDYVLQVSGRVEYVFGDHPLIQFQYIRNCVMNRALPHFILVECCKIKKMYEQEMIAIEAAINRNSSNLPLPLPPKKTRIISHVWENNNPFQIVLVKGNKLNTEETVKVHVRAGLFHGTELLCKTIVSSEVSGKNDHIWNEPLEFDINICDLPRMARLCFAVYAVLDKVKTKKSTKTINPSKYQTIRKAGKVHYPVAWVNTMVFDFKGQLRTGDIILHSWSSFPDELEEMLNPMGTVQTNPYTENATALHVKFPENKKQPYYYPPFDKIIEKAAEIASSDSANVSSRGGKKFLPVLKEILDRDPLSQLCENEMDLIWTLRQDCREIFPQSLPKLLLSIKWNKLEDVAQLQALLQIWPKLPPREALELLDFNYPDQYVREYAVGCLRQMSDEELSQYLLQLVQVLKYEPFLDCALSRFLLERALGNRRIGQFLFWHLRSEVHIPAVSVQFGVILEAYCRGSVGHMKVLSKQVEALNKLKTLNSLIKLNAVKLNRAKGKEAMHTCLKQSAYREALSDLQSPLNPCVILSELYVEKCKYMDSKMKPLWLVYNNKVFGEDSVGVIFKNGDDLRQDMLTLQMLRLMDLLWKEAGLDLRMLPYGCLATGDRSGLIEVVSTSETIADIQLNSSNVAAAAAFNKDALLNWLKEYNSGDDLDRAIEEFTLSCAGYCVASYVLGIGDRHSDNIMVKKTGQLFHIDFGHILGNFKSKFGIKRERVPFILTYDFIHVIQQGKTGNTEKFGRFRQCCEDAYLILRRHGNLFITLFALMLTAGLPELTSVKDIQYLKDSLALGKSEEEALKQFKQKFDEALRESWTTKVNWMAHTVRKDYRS
# PI3K (p110β/p85α) (h), sequence (P27986 whole entry partner): as the sequence (P27986 whole entry partner) above
# Description: as §2
# PI3K (p110β/p85α) (h) [Non-Radioactive Assay]
# as §3, with “([…])” for “(p110δ/p85α)”
# as §4
CLint scaled at 5 μM [1] [mL/min/kg],half-life at 5 μM [1] [min],IC50 (PI3K (p110δ/p85α) (h)) [nM],CLint scaled at 5 μM [2] [mL/min/kg],half-life at 5 μM [2] [min],IC50 (PI3K (p110α/p85α) (h)) [nM],IC50 (PI3K (p110β/p85α) (h)) [nM],Compound
28.1,61.9,13,14.5,171,882,900,"Cc1nnc(-c2c(N)ncnc2N[C@@H](C)c2cc3cccc(-c4cnn(C)c4)c3c(=O)n2C2CC2)o1 [Ex. 25, (S)-3-(1-((6-amino-5-(5-methyl-1,3,4-oxadiazol-2-yl)pyrimidin-4-yl)amino)ethyl)-2-cyclopropyl-8-(1-methyl-1H-pyrazol-4-yl)isoquinolin-1 (2H)-one]"
85.3,20.4,11,102,24.4,1470,30,"Cc1nnc(-c2c(N)ncnc2N[C@@H](C)c2cc3cccc(Cl)c3c(=O)n2C2CC2)o1 [Ex. 4, (S)-3-(1-((6-amino-5-(5-methyl-1,3,4-oxadiazol-2-yl)pyrimidin-4-yl)amino)ethyl)-8-chloro-2-cyclopropylisoquinolin-1(2H)-one]"
51.8,33.6,4,22.3,112,132,176,"Cc1noc(-c2c(N)ncnc2N[C@@H](C)c2cc3cccc(-c4cnn(C)c4)c3c(=O)n2C2CC2)n1 [Ex. 26, (S)-3-(1-((6-amino-5-(3-methyl-1,2,4-oxadiazol-5-yl)pyrimidin-4-yl)amino)ethyl)-2-cyclopropyl-8-(1-methyl-1H-pyrazol-4-yl)isoquinolin-1 (2H)-one]"
196,8.88,1,229,10.9,276,,"Cc1noc(-c2c(N)ncnc2N[C@@H](C)c2cc3cccc(Cl)c3c(=O)n2-c2ccccc2)n1 [Ex. 8, (S)-3-(1-((6-amino-5-(3-methyl-1,2,4-oxadiazol-5-yl)pyrimidin-4-yl)amino)ethyl)-8-chloro-2-phenylisoquinolin-1(2H)-one]"
83.7,20.8,4,185,13.4,2680,,"Cc1nnc(-c2c(N)ncnc2N[C@@H](C)c2cc3cccc(Cl)c3c(=O)n2-c2ccccc2)o1 [Ex. 9, (S)-3-(1-((6-amino-5-(5-methyl-1,3,4-oxadiazol-2-yl)pyrimidin-4-yl)amino)ethyl)-8-chloro-2-phenylisoquinolin-1(2H)-one]"
